How the values were obtained:
[1] = system: Human colon cancer cells (HCT116); test: Tumor cell proliferation inhibition (CCK-8), HCT116; format: cell-based; conditions: for inhibition at 100 µM: HCT-116, 100 μM of the compound, read-out: Anti-proliferative activity at 100 μM by concentration (%) HCT116 (tumor cell inhibition rate)
Method: (§1) Human colon cancer cells (HCT116), human lung cancer cells (A549).
(§2) 1) The test cells in a logarithmic growth phase were trypsinized and counted, inoculated in a 96-well culture plate at a concentration of 5×10^4/mL, 100 μL per well (5×10^3 cells per well), and incubated at 37° C. in a 5% CO2 incubator for 24 h.
(§3) 2) A drug to be tested was diluted to different concentrations with McCoy'S 5A or RPMI 1640 complete medium. The experimental group was replaced with a culture solution containing different concentrations of the tested samples, and the control group was replaced with a culture solution containing the same volume of solvent (DMSO). Three parallel wells were set up in each group, and the culture was continued for 48 h in a 5% CO2 incubator at 37° C.
(§4) HCT116 cells used the McCoy'S 5A complete medium, and A549 cells used the RPMI 1640 complete medium.
(§5) 3) 10 μL of a CCK-8 solution was added to each well, incubated at 37° C. for 1 h to 4 h, and an absorbance (OD value) of each well at 490 nm was measured with a microplate reader.
(§6) 4) A survival rate and an inhibition rate were calculated with the following formulas:
(§7) Cell survival rate=[(As−Ab)/(Ac−Ab)]×100%
(§8) Inhibition rate=[(Ac−As)/(Ac−Ab)]×100%
(§9) An S-type dose-survival curve was plotted using GraphPad Prism 7.0 software and a nonlinear regression model, and IC50 values were calculated. • As: absorbance of the experimental well (medium containing cells, CCK-8, and the drug to be tested) • Ac: absorbance of control wells (medium containing cells, CCK-8, and solvent (DMSO)) • Ab: absorbance of blank wells (medium without cells and drug to be tested, CCK-8)

[2] = system: human lung cancer cells (A549); test: Tumor cell proliferation inhibition (CCK-8), A549; format: cell-based; conditions: 48 h; for inhibition at 100 µM: read-out: Anti-proliferative activity at 100 μM by concentration (%) A549 (tumor cell inhibition rate)
Method: as §1, §2, §3, §4, §5, §6, §7, §8, §9

[3] = Homo sapiens, 100 μM of the compound

| Structure (SMILES) | Anti-proliferative activity at 100 μM by concentration (%) HCT116 (tumor cell inhibition rate) ([1]; 100 μM of the compound, 48 h) | IC50 ([1]; 48 h) | Anti-proliferative activity at 100 μM by concentration (%) A549 (tumor cell inhibition rate) ([2]; 100 μM of the compound) | IC50 [2] | inhibition at 100 µM ([1]; Homo sapiens, 48 h) | inhibition at 100 µM [2, 3] | IC50 ([1]; Homo sapiens, HCT-116, 48 h) | IC50 ([2]; Homo sapiens) |
| --- | --- | --- | --- | --- | --- | --- | --- | --- |
| C=C[C@]1(C)CC[C@@H](C(=C)C)C[C@H]1C(=C)C [β-elemene, reference compound] | 0.6 ± 0.5% | 782 ± 51 µM | 10.6 ± 0.5% | 227 ± 1.2 µM | – | – | – | – |
| C=C[C@]1(C)CC[C@@H](C(=C)C/C=C/c2ccc(C(=O)OCC[C@@H](C)CCC=C(C)C)cc2)C[C@H]1C(=C)C [Compound 6] | – | – | – | – | 21.7 ± 0.8% | 14.4 ± 0.5% | – | – |
| C=C[C@]1(C)CC[C@@H](C(=C)C/C=C/c2ccc(C(=O)OCCOc3ccc(/C(=C(/CCCl)c4ccccc4)c4ccccc4)cc3)cc2)C[C@H]1C(=C)C [Compound 10] | – | – | – | – | 13.5 ± 0.3% | 40.4 ± 0.6% | – | – |
| C=C[C@]1(C)CC[C@@H](C(=C)C/C=C/c2ccc(-n3cncn3)cc2)C[C@H]1C(=C)C [Compound 4] | – | – | – | – | 99.8 ± 0.08% | 97.5 ± 0.4% | 50.9 ± 0.8 µM | 57.2 ± 2.95 µM |

From patent US20250161233A1, “VINYLATION COUPLED DERIVATIVE OF BETA-ELEMENE, AND PREPARATION METHOD AND USE THEREOF IN PREPARATION OF ANTITUMOR DRUG” (HANGZHOU NORMAL UNIVERSITY, priority 2022, published 2025)
